# Earlier results as cited in patent US20160375061A1, “COMPOSITION INVOLVED IN REGULATING ENERGY CYCLE, INFLAMMATION AND INSULIN RESISTANCE DYSFUNCTIONS, AND USE THEREOF PARTICULARLY IN CARDIOMETABOLIC DISEASES” (INTERNATIONAL NUTRITION RESEARCH COMPANY, priority 2013, published 2016).
# Conditions: mutation of the gene transporter OCT1; normal daily doses 1 to 3 g/day
structure (smiles),measurement,value
CN(C)C(=N)N=C(N)N [metformin],concentrations of metformin (saturation),30 ± 19 ng/mL
